Test results reported in ChEMBL document CHEMBL1201862, “PubChem BioAssay data set” (2004).
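Cells were grown in 96-well plates and exposed to each compound for 48 hours at five concentrations; endpoints were interpolated linearly between bracketing concentrations, or set to the highest concentration if not reached. GI50 is the concentration that inhibits growth by half.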 Calls of active or inactive are those of the source. Cut-off read from the data, not from the text of the source: active = GI50 up to about 1.1 µM and inactive = higher.

Assays:
Assay in all cases: inhibition of tumour cell growth, NCI panel, 48 h
786-0 = tested on: 786-0
A498 = tested on: A498
A549 = tested on: A549
ACHN = tested on: ACHN
BT-549 = tested on: BT-549
CAKI-1 = tested on: CAKI-1
CCRF-CEM = tested on: CCRF-CEM
COLO 205 = tested on: COLO 205
DU-145 = tested on: DU-145
EKVX = tested on: EKVX
HCT-116 = tested on: HCT-116
HCT-15 = tested on: HCT-15
HL-60 = tested on: HL-60
HOP-62 = tested on: HOP-62
HOP-92 = tested on: HOP-92
HT-29 = tested on: HT-29
Hs-578T = tested on: Hs-578T
IGROV-1 = tested on: IGROV-1
K562 = tested on: K562
KM12 = tested on: KM12
LOX IMVI = tested on: LOX IMVI
M14 = tested on: M14
MCF7 = tested on: MCF7
MDA-MB-231 = tested on: MDA-MB-231
MDA-MB-435 = tested on: MDA-MB-435
MDA-N = tested on: MDA-N
MOLT-4 = tested on: MOLT-4
Malme-3M = tested on: Malme-3M
NCI-H226 = tested on: NCI-H226
NCI-H23 = tested on: NCI-H23
NCI-H460 = tested on: NCI-H460
NCI-H522 = tested on: NCI-H522
NCI/ADR-RES = tested on: NCI/ADR-RES
OVCAR-3 = tested on: OVCAR-3
OVCAR-4 = tested on: OVCAR-4
OVCAR-5 = tested on: OVCAR-5
OVCAR-8 = tested on: OVCAR-8
PC-3 = tested on: PC-3
RPMI-8226 = tested on: RPMI-8226
RXF 393 = tested on: RXF 393
SF-268 = tested on: SF-268
SF-295 = tested on: SF-295
SF-539 = tested on: SF-539
SK-MEL-28 = tested on: SK-MEL-28
SK-MEL-2 = tested on: SK-MEL-2
SK-MEL-5 = tested on: SK-MEL-5
SK-OV-3 = tested on: SK-OV-3
SN12C = tested on: SN12C
SNB-19 = tested on: SNB-19
SNB-75 = tested on: SNB-75
SR = tested on: SR
SW-620 = tested on: SW-620
T47D = tested on: T47D
TK-10 = tested on: TK-10
U-251 = tested on: U-251
UACC-257 = tested on: UACC-257
UACC-62 = tested on: UACC-62
UO-31 = tested on: UO-31

Compound: O=S(=O)(CC(O)C(Cl)(Cl)Cl)NNc1ccccc1 (stereo not given)
- GI50 (786-0): > 100 µM (inactive)
- GI50 (A498): > 100 µM (inactive)
- GI50 (A549): > 100 µM (inactive)
- GI50 (ACHN): > 100 µM (inactive)
- GI50 (BT-549): > 100 µM (inactive)
- GI50 (CAKI-1): > 100 µM (inactive)
- GI50 (CCRF-CEM): > 100 µM (inactive)
- GI50 (COLO 205): 75 µM (inactive)
- GI50 (DU-145): > 100 µM (inactive)
- GI50 (EKVX): > 100 µM (inactive)
- GI50 (HCT-116): > 100 µM (inactive)
- GI50 (HCT-15): 72.1 µM
- GI50 (HL-60): 47.6 µM (inactive)
- GI50 (HOP-62): > 100 µM (inactive)
- GI50 (HOP-92): > 100 µM (inactive)
- GI50 (HT-29): > 100 µM (inactive)
- GI50 (Hs-578T): > 100 µM (inactive)
- GI50 (IGROV-1): > 100 µM (inactive)
- GI50 (K562): 23 µM (inactive)
- GI50 (KM12): > 100 µM (inactive)
- GI50 (LOX IMVI): > 100 µM (inactive)
- GI50 (M14): 81.7 µM (inactive)
- GI50 (MCF7): > 100 µM (inactive)
- GI50 (MDA-MB-231): > 100 µM (inactive)
- GI50 (MDA-MB-435): > 100 µM (inactive)
- GI50 (MDA-N): > 100 µM (inactive)
- GI50 (MOLT-4): > 100 µM (inactive)
- GI50 (Malme-3M): > 100 µM (inactive)
- GI50 (NCI-H226): > 100 µM (inactive)
- GI50 (NCI-H23): > 100 µM (inactive)
- GI50 (NCI-H460): 75.3 µM (inactive)
- GI50 (NCI-H522): > 100 µM (inactive)
- GI50 (NCI/ADR-RES): > 100 µM (inactive)
- GI50 (OVCAR-3): > 100 µM (inactive)
- GI50 (OVCAR-4): > 100 µM (inactive)
- GI50 (OVCAR-5): > 100 µM (inactive)
- GI50 (OVCAR-8): > 100 µM (inactive)
- GI50 (PC-3): > 100 µM (inactive)
- GI50 (RPMI-8226): > 100 µM (inactive)
- GI50 (RXF 393): > 100 µM (inactive)
- GI50 (SF-268): > 100 µM (inactive)
- GI50 (SF-295): 80.7 µM (inactive)
- GI50 (SF-539): > 100 µM (inactive)
- GI50 (SK-MEL-28): > 100 µM (inactive)
- GI50 (SK-MEL-2): > 100 µM (inactive)
- GI50 (SK-MEL-5): 74.1 µM (inactive)
- GI50 (SK-OV-3): > 100 µM (inactive)
- GI50 (SN12C): > 100 µM (inactive)
- GI50 (SNB-19): > 100 µM (inactive)
- GI50 (SNB-75): > 100 µM (inactive)
- GI50 (SR): > 100 µM (inactive)
- GI50 (SW-620): > 100 µM (inactive)
- GI50 (T47D): 81.5 µM (inactive)
- GI50 (TK-10): > 100 µM (inactive)
- GI50 (U-251): > 100 µM (inactive)
- GI50 (UACC-257): > 100 µM (inactive)
- GI50 (UACC-62): 20.7 µM (inactive)

Compound: CCOc1ccccc1/C=C(/C#N)C(N)=O
- GI50 (786-0): > 100 µM (inactive)
- GI50 (A498): > 100 µM (inactive)
- GI50 (A549): > 100 µM (inactive)
- GI50 (ACHN): > 100 µM (inactive)
- GI50 (BT-549): > 100 µM (inactive)
- GI50 (CAKI-1): > 100 µM (inactive)
- GI50 (CCRF-CEM): 10.3 µM (inactive)
- GI50 (COLO 205): > 100 µM (inactive)
- GI50 (DU-145): > 100 µM (inactive)
- GI50 (EKVX): > 100 µM (inactive)
- GI50 (HCT-116): 78.3 µM (inactive)
- GI50 (HCT-15): 59 µM
- GI50 (HL-60): 21.6 µM (inactive)
- GI50 (HOP-62): > 100 µM (inactive)
- GI50 (HOP-92): > 100 µM (inactive)
- GI50 (HT-29): > 100 µM (inactive)
- GI50 (Hs-578T): > 100 µM (inactive)
- GI50 (IGROV-1): > 100 µM (inactive)
- GI50 (K562): 36.2 µM (inactive)
- GI50 (KM12): > 100 µM (inactive)
- GI50 (LOX IMVI): > 100 µM (inactive)
- GI50 (M14): > 100 µM (inactive)
- GI50 (MCF7): 41.7 µM (inactive)
- GI50 (MDA-MB-231): > 100 µM (inactive)
- GI50 (MDA-MB-435): 18.2 µM (inactive)
- GI50 (MDA-N): 18.7 µM (inactive)
- GI50 (MOLT-4): 83.9 µM (inactive)
- GI50 (Malme-3M): > 100 µM (inactive)
- GI50 (NCI-H226): > 100 µM (inactive)
- GI50 (NCI-H23): > 100 µM (inactive)
- GI50 (NCI-H460): > 100 µM (inactive)
- GI50 (NCI-H522): > 100 µM (inactive)
- GI50 (NCI/ADR-RES): > 100 µM (inactive)
- GI50 (OVCAR-3): > 100 µM (inactive)
- GI50 (OVCAR-4): > 100 µM (inactive)
- GI50 (OVCAR-5): > 100 µM (inactive)
- GI50 (OVCAR-8): > 100 µM (inactive)
- GI50 (PC-3): > 100 µM (inactive)
- GI50 (RPMI-8226): > 100 µM (inactive)
- GI50 (RXF 393): > 100 µM (inactive)
- GI50 (SF-268): > 100 µM (inactive)
- GI50 (SF-295): > 100 µM (inactive)
- GI50 (SF-539): 70.6 µM (inactive)
- GI50 (SK-MEL-28): > 100 µM (inactive)
- GI50 (SK-MEL-2): > 100 µM (inactive)
- GI50 (SK-MEL-5): 78.3 µM (inactive)
- GI50 (SK-OV-3): > 100 µM (inactive)
- GI50 (SN12C): > 100 µM (inactive)
- GI50 (SNB-19): > 100 µM (inactive)
- GI50 (SNB-75): > 100 µM (inactive)
- GI50 (SR): 23.9 µM (inactive)
- GI50 (SW-620): 60 µM (inactive)
- GI50 (T47D): > 100 µM (inactive)
- GI50 (TK-10): > 100 µM (inactive)
- GI50 (U-251): > 100 µM (inactive)
- GI50 (UACC-257): > 100 µM (inactive)
- GI50 (UACC-62): 96.2 µM (inactive)
- GI50 (UO-31): 85.3 µM (inactive)
